Experiments:
Type in all cases: cell-based
P. aeruginosa PAO1 [1] = assay: Antibacterial activity in combination with minocycline (growth inhibition); settings: Pseudomonas aeruginosa, PAO1, compound at 50 μM; minocycline 8 μg/mL; OD625 23 h minus 1 h; read-out: residual growth of P. aeruginosa PAO1 (% of uninhibited control) with minocycline
Summary of the method: (§1)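 Test compound combined with fixed subinhibitory partner antibiotic: linezolid 128 μg/mL for either strain, minocycline 0.25 μg/mL (E. coli) or 8 μg/mL (P. aeruginosa), in caMHB shaken at 37 °C. Residual growth as % of inhibitor-free control, from OD625 at 23 h minus 1 h.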

E. coli ATCC25922 [2] = assay: Antibacterial activity in combination with linezolid (growth inhibition); settings: Escherichia coli, ATCC25922, compound at 50 μM; linezolid 128 μg/mL; OD625 23 h minus 1 h; read-out: residual growth of E. coli ATCC25922 (% of uninhibited control) with linezolid
Experimental: (§2) Antibacterial activity in combination with minocycline or with linezolid
(§3) Inhibition of growth was measured with E. coli ATCC25922 and P. aeruginosa PAO1 in a 96-well plate format. Cation-adjusted Müller-Hinton broth (caMHB) was inoculated with an overnight culture and incubated at 37° C. on a shaker until OD625 reached 0.6 to 0.7. Density was adjusted to OD600=0.5 by addition of caMHB. 35 μL of the suspension were diluted to 35 mL with caMHB and supplemented with minocycline at the subinhibitory doses of 0.25 μg/mL for E. coli and 8 μg/mL for P. aeruginosa or with linezolid at the subinhibitory dose of 128 μg/mL for E. coli and P. aeruginosa. Each well contained 1 μL of test compound in 100 μL caMHB with minocycline or with linezolid.
(§4) Plates were incubated at 37° C. on a plate shaker. OD625 was measured at 1 h, 6 h, and at 23 h.
(§5) The difference between OD at 23 h and at 1 h was taken as measure for cell density and compared to controls without inhibitor (i.e. uninhibited control). Results were expressed as residual growth (% of uninhibited control). Enhancement of minocycline or linezolid activity caused reduced residual growth.

E. coli ATCC25922 [3] = assay: Antibacterial activity in combination with minocycline (growth inhibition); settings: Escherichia coli, ATCC25922, compound at 25 μM; minocycline 0.25 μg/mL; OD625 23 h minus 1 h; read-out: residual growth of E. coli ATCC25922 (% of uninhibited control) with minocycline
Summary of the method: as §1

P. aeruginosa PAO1 [4] = assay: Antibacterial activity in combination with linezolid (growth inhibition); settings: Pseudomonas aeruginosa, PAO1, compound at 50 μM; linezolid 128 μg/mL; OD625 23 h minus 1 h; read-out: residual growth of P. aeruginosa PAO1 (% of uninhibited control) with linezolid
Experimental: as §2, §3, §4, §5

Row | SMILES | activity at 50 µM (P. aeruginosa PAO1 [1]) [%] | activity at 50 µM (E. coli ATCC25922 [2]) [%] | activity at 25 µM (E. coli ATCC25922 [3]) [%] | activity at 50 µM (P. aeruginosa PAO1 [4]) [%]
1 | Clc1ccccc1COc1ccc(CNCC2CCNCC2)cc1 [Example 1] | ≤ 50 | ≤ 50 | – | –
2 | Clc1ccc(COc2ccc(CNCC3CNC3)cc2)c(Br)c1 [Example 36] | – | – | ≤ 10 | ≤ 50
3 | Clc1ccc(COc2ccc(CNCC3CCNC3)cc2)c(Br)c1 (stereo not shown) [Example 63] | – | – | ≤ 10 | ≤ 50
4 | N#Cc1ccc(COc2ccc(CNCC3CNC3)cc2)cc1 [Example 76] | – | ≤ 50 | – | –
5 | CS(=O)(=O)c1ccc(COc2ccc(CNCC3CNC3)cc2)c(Cl)c1 [Example 78] | – | ≤ 50 | – | –
6 | Clc1ccc(COc2ccc(CCNCC3CNC3)cc2)c(Br)c1 [Example 100] | – | ≤ 50 | ≤ 10 | –
7 | O=C(O)c1cc(CNCC2CNC2)cc(OCc2ccc(Cl)cc2Br)c1 [Example 110] | – | ≤ 50 | – | –
8 | O=C(CNCC1CCNC1)c1cccc(OCc2ccc(Cl)cc2Br)c1 (stereo not shown) [Example 143] | – | ≤ 50 | – | –
9 | O=C(Nc1ccc(CNCC2CCNC2)cc1Cl)c1ccc(C(F)(F)F)cc1C(F)(F)F (stereo not shown) [Example 160] | – | ≤ 50 | – | –
10 | O=C(Nc1ccc(CNCC2CNC2)cc1Cl)c1ccc(Cl)cc1C(F)(F)F [Example 161] | – | ≤ 50 | – | –
11 | Clc1ccc(COc2cc(CNCC3CNC3)cc(OCC3CC3)c2)c(Cl)c1 [Example 166] | – | – | ≤ 10 | ≤ 50
12 | CC(C)Oc1cc(C[N+](C)(C)CC2CCNC2)cc(OCc2ccc(Cl)cc2Br)c1 (stereo not shown) [Example 167] | – | – | ≤ 10 | ≤ 50
13 | NCC1CCC(CNCc2cccc(OCc3ccc(Cl)cc3Br)c2)N1 (stereo not shown) [Example 192] | ≤ 50 | – | ≤ 10 | ≤ 50
14 | C[N+](C)(CC(=O)O)Cc1cc(CNCC2CNC2)cc(OCc2ccc(Cl)cc2Br)c1 [Example 232] | – | ≤ 50 | – | –
15 | CN(CC(=O)O)Cc1cc(CNCC2CNC2)cc(OCc2ccc(Cl)cc2Br)c1 [Example 244] | – | ≤ 50 | – | –
16 | Clc1ccc(COc2cc(CNCC3CCNC3)cc(OCCc3c[nH]cn3)c2)c(Br)c1 (stereo not shown) [Example 251] | – | – | ≤ 10 | ≤ 50
17 | CC(C)(C)c1ccc(COc2cc(CNCC3CNC3)cc(C(F)(F)F)c2)cc1 [Example 273] | – | – | ≤ 10 | ≤ 50
18 | C=CCOc1cc(/C=C/c2cccc(C#N)c2)cc(CNCC2CCNC2)c1 (stereo not shown) [Example 305] | – | – | ≤ 10 | ≤ 50
19 | CC(C)COc1cc(/C=C/c2cccnc2)cc(CNCC2CCNC2)c1 (stereo not shown) [Example 332] | ≤ 50 | – | ≤ 10 | ≤ 50

Row | SMILES | activity at 50 µM (P. aeruginosa PAO1 [1]) [%] | activity at 50 µM (E. coli ATCC25922 [2]) [%] | activity at 25 µM (E. coli ATCC25922 [3]) [%] | activity at 50 µM (P. aeruginosa PAO1 [4]) [%]
20 | CC(C)COc1cc(/C=C/c2ccc(C(N)=O)cc2)cc(CNCC2CCNC2)c1 (stereo not shown) [Example 337] | – | – | ≤ 10 | ≤ 50
21 | C[N+](C)(Cc1cc(OCCc2c[nH]cn2)cc(OCc2ccc(Cl)cc2Br)c1)CC1CNC1 [Example 389] | – | – | ≤ 10 | ≤ 50
22 | C[N+](C)(Cc1cc(OCCc2c[nH]cn2)cc(OCc2ccc(Cl)cc2Br)c1)CC1CCNC1 (stereo not shown) [Example 404] | – | – | ≤ 10 | ≤ 50
23 | c1cncc(COc2cc(CNCC3CCNC3)cc(OCCc3ccncc3)c2)c1 (stereo not shown) [Example 427] | – | ≤ 50 | – | –
24 | c1cncc(COc2cc(CNCC3CNC3)cc(OCCN3CCOCC3)c2)c1 [Example 428] | – | ≤ 50 | – | –
25 | CC(C)COc1ccc(/C=C/c2ccc(Cl)cc2Br)cc1CNCC1CNC1 [Example 432] | – | – | ≤ 10 | ≤ 50
26 | C(=C\c1cc(CNCC2CNC2)cc(OCCN2CCOCC2)c1)/c1cccnc1 [Example 442] | – | ≤ 50 | – | –
27 | C=CCOc1cc(/C=C/c2ccc(Cl)cc2Br)cc(C(=O)NCCN(CC2CNC2)CC2CNC2)c1 [Example 447] | – | ≤ 50 | ≤ 10 | –
28 | C=CCOc1cc(/C=C/c2cncc(C(=O)O)c2)cc(CNCC2CCNC2)c1 (stereo not shown) [Example 449] | – | ≤ 50 | – | –
29 | C=CCOc1cc(/C=C/c2ccc(Cl)cc2Br)cc(C(=O)NCCNC(=O)C2CNC2)c1 [Example 454] | – | – | ≤ 10 | ≤ 50
30 | C=CCOc1cc(/C=C/c2cncc(C(=O)N(C)C)c2)cc(CNCC2CCNC2)c1 (stereo not shown) [Example 467] | ≤ 50 | – | – | ≤ 50
31 | N#Cc1cncc(/C=C/c2cc(OCc3ccccn3)cc(CNCC3CCNC3)n2)c1 (stereo not shown) [Example 482] | – | ≤ 50 | – | –
32 | N#Cc1cncc(/C=C/c2cc(CNCC3CCNC3)cc(OCCN3CCOCC3)c2)c1 (stereo not shown) [Example 484, 5-[(E)-2-[3-(2-morpholinoethoxy)-5-[(pyrrolidin-3-ylmethylamino)methyl]phenyl]vinyl]pyridine-3-carbonitrile] | – | ≤ 50 | – | –
33 | N#Cc1cncc(/C=C/c2cc(CNCC3CCNC3)cc(OCc3n[nH]c(=O)o3)c2)c1 (stereo not shown) [Example 491, 5-[(E)-2-[3-[(2-oxo-3H-1,3,4-oxadiazol-5-yl)methoxy]-5-[(pyrrolidin-3-ylmethylamino)methyl]phenyl]vinyl]pyridine-3-carbonitrile] | – | ≤ 50 | – | –
34 | Oc1ncc(/C=C/c2ccc(Cl)cc2Br)cc1CNCC1CCNC1 (stereo not shown) [Example 494, 5-[(E)-2-(2-bromo-4-chloro-phenyl)vinyl]-3-[(pyrrolidin-3-ylmethylamino)methyl]pyridin-2-ol] | – | – | ≤ 10 | ≤ 50
35 | CC(C)COc1cc(CNCC2CCNC2)cc(S(=O)(=O)Cc2cccnc2)c1 (stereo not shown) [Example 495] | – | ≤ 50 | – | –
36 | CC(C)COc1cc(/C=C/c2cccnc2)cc(C(=O)CNCC2CCNC2)c1 (stereo not shown) [Example 502, 1-[3-isobutoxy-5-[(E)-2-(3-pyridyl)vinyl]phenyl]-2-(pyrrolidin-3-ylmethylamino)ethanone] | ≤ 50 | ≤ 50 | – | –
37 | O=C(NCCN(CC1CNC1)CC1CNC1)c1cc(OCCc2ccncc2)cc(OCc2cccnc2)c1 [Example 506, N-[2-[bis(azetidin-3-ylmethyl)amino]ethyl]-3-[2-(4-pyridyl)ethoxy]-5-(3-pyridylmethoxy)benzamide] | – | ≤ 50 | – | –
38 | O=C(NCCN(CC1CNC1)CC1CNC1)c1cc(CNC(=O)c2cccnc2)cc(OCCc2ccncc2)c1 [Example 507, N-[[3-[2-[bis(azetidin-3-ylmethyl)amino]ethylcarbamoyl]-5-[2-(4-pyridyl)ethoxyl]phenyl]methyl]pyridine-3-carboxamide] | ≤ 50 | ≤ 50 | – | –
